Measured values from PMC12281475, “Mediator Kinase Inhibitor Selectivity and Activity in Colorectal Cancer” (ACS Chemical Biology, 2025).
pIC50: −log10 of the molar value.

Legend:
CDK7_CycH_MAT1 = biological target: T1, CDK7_CycH_MAT1 (Homo sapiens, UniProt P50613); experiment: Radiometric protein kinase assay (33PanQinase), CDK7_CycH_MAT1; assay type: biochemical
T1 construct: purchased Reaction Biology

CDK2_CycE1 = biological target: T2, CDK2_CycE1 (Homo sapiens, UniProt P24941); experiment: Radiometric protein kinase assay (33PanQinase), CDK2_CycE1; assay type: biochemical
T2 construct: purchased Reaction Biology

CDK2_CycA2 = biological target: T3, CDK2_CycA2 (Homo sapiens, UniProt P24941); experiment: Radiometric protein kinase assay (33PanQinase), CDK2_CycA2; assay type: biochemical
T3 construct: purchased Reaction Biology

CDK3_CycC = biological target: T4, CDK3_CycC (Homo sapiens, UniProt Q00526); experiment: Radiometric protein kinase assay (33PanQinase), CDK3_CycC; assay type: biochemical
T4 construct: purchased Reaction Biology

CDK4_CycD2 = biological target: T5, CDK4_CycD2 (Homo sapiens, UniProt P11802); experiment: Radiometric protein kinase assay (33PanQinase), CDK4_CycD2; assay type: biochemical
T5 construct: purchased Reaction Biology

CDK9_CycT1 = biological target: T6, CDK9_CycT1 (Homo sapiens, UniProt P50750); experiment: Radiometric protein kinase assay (33PanQinase), CDK9_CycT1; assay type: biochemical
T6 construct: purchased Reaction Biology

CDK13_CycK = biological target: T7, CDK13_CycK (Homo sapiens, UniProt Q14004); experiment: Radiometric protein kinase assay (33PanQinase), CDK13_CycK; assay type: biochemical
T7 construct: purchased Reaction Biology

CDK8_CycC = biological target: T8, CDK8_CycC (Homo sapiens, UniProt P49336); experiment: Radiometric protein kinase assay (33PanQinase), CDK8_CycC; assay type: biochemical
T8 construct: purchased Reaction Biology

CDK11B 357-795_CycK = CDK11B 357-795_CycK (Homo sapiens, UniProt P21127); experiment: Radiometric protein kinase assay (33PanQinase), CDK11B 357-795_CycK; assay type: biochemical
CDK20_CycH = CDK20_CycH (Homo sapiens, UniProt Q8IZL9); experiment: Radiometric protein kinase assay (33PanQinase), CDK20_CycH; assay type: biochemical
CDK8 = test system: CDK8; design: method as in numbers not given; settings: reporter displacement assay; previously characterized compounds, no method in this paper; ref numbers not given; read-out: IC50 for in vitro CDK8 binding; cited from earlier work
CDK12_CycK = biological target: T9, CDK12_CycK (Homo sapiens, UniProt Q9NYV4); experiment: Radiometric protein kinase assay (33PanQinase), CDK12_CycK; assay type: biochemical
T9 construct: purchased Reaction Biology

CDK6_CycD3 = biological target: T10, CDK6_CycD3 (Homo sapiens, UniProt Q00534); experiment: Radiometric protein kinase assay (33PanQinase), CDK6_CycD3; assay type: biochemical; settings: slope of the IC50 fit
T10 construct: purchased Reaction Biology

CDK4_CycD1 = biological target: T11, CDK4_CycD1 (Homo sapiens, UniProt P11802); experiment: Radiometric protein kinase assay (33PanQinase), CDK4_CycD1; assay type: biochemical
T11 construct: purchased Reaction Biology

CDK6_CycD2 = biological target: T12, CDK6_CycD2 (Homo sapiens, UniProt Q00534); experiment: Radiometric protein kinase assay (33PanQinase), CDK6_CycD2; assay type: biochemical
T12 construct: purchased Reaction Biology

CDK5_p35NCK = biological target: T13, CDK5_p35NCK (Homo sapiens, UniProt Q00535); experiment: Radiometric protein kinase assay (33PanQinase), CDK5_p35NCK; assay type: biochemical
T13 construct: purchased Reaction Biology

CDK18_CycY = CDK18_CycY (Homo sapiens, UniProt Q07002); experiment: Radiometric protein kinase assay (33PanQinase), CDK18_CycY; assay type: biochemical
CDK19_CycC = biological target: T14, CDK19_CycC (Homo sapiens, UniProt Q9BWU1); experiment: Radiometric protein kinase assay (33PanQinase), CDK19_CycC; assay type: biochemical
T14 construct: purchased Reaction Biology

CDK15_CycA2 = biological target: T15, CDK15_CycA2 (Homo sapiens, UniProt Q96Q40); experiment: Radiometric protein kinase assay (33PanQinase), CDK15_CycA2; assay type: biochemical
T15 construct: purchased Reaction Biology

CDK3_CycE1 = biological target: T16, CDK3_CycE1 (Homo sapiens, UniProt Q00526); experiment: Radiometric protein kinase assay (33PanQinase), CDK3_CycE1; assay type: biochemical
T16 construct: purchased Reaction Biology

CDK17_p35NCK = CDK17_p35NCK (Homo sapiens, UniProt Q00537); experiment: Radiometric protein kinase assay (33PanQinase), CDK17_p35NCK; assay type: biochemical
CDK10_CycQ = CDK10_CycQ (Homo sapiens, UniProt Q15131); experiment: Radiometric protein kinase assay (33PanQinase), CDK10_CycQ; assay type: biochemical
CDK20_CycT1 = CDK20_CycT1 (Homo sapiens, UniProt Q8IZL9); experiment: Radiometric protein kinase assay (33PanQinase), CDK20_CycT1; assay type: biochemical
CDK16_CycY = biological target: T17, CDK16_CycY (Homo sapiens, UniProt Q00536); experiment: Radiometric protein kinase assay (33PanQinase), CDK16_CycY; assay type: biochemical
T17 construct: purchased Reaction Biology

CDK1_CycB1 = biological target: T18, CDK1_CycB1 (Homo sapiens, UniProt P06493); experiment: Radiometric protein kinase assay (33PanQinase), CDK1_CycB1; assay type: biochemical
T18 construct: purchased Reaction Biology

CDK14_CycY = CDK14_CycY (Homo sapiens, UniProt O94921); experiment: Radiometric protein kinase assay (33PanQinase), CDK14_CycY; assay type: biochemical
COLO205 cells = experiment: Promoter reporter panel (transient luciferase constructs), COLO205; assay type: cell-based, human; settings: COLO205, 350 nM, 6 h
Procedure: Transcription factor activity was assayed in cell lines using 45 different plasmid reporter constructs encoding firefly luciferase under the control of a basal promoter element downstream of specific transcriptional response elements (Qiagen, Germany; Supporting Table S1). Firefly luciferase under the control of basal promoter element alone was used to establish the baseline signal and cotransfection of a construct expressing renilla luciferase from a CMV-promoter was used as a transfection control. Cells were reverse-transfected with reporter plasmids, compounds were added 42 h post transfection and reporter activity quantified following 6 h continuous exposure.
Transcription factor promoter reporter assays were carried out to define signalling pathways and biological processes modulated by CDK8/19 ligands. A panel of plasmid reporter constructs encoding firefly luciferase under the control of a basal promoter element with specific transcriptional response elements were used (Qiagen, Germany;
Firefly luciferase under the control of the minimal promoter element (TATA box) alone was used to establish the base-line signal and a construct expressing renilla luciferase from a CMV-promoter was used as a transfection control. COLO205 human colon cancer cells or SW620 parental and CRISPR KO cells were reverse-transfected with the panel of plasmid reporters in a 96 well plate format. The reporter mixes were prepared at 40:1 ratio of fLUC to rLUC plasmid at a final concentration of
100 ng/ml. For each well 1 ul plasmid was complexed with 1 ul Lipofectamine 2000
(Thermo Fisher Scientific, UK) in 50 ul OptiMEM (Thermo Fisher Scientific, UK) media
for 20 mins at room temperature. Cells were trypsinised and 50 ul of cells at 2e5
cells/ml in supplemented DMEM were added to the 50 ul of plasmid:lipofectamine
mixture in OptiMEM in a well of a 96-well white opaque flat bottom microtiter plate.
fLUC and rLUC were measured by the addition of 100 ul dual glo luciferase reagent
(Promega, USA). Reporter activity was quantified in untreated cells 48 hours post- […]

CDK9_CycK = biological target: T19, CDK9_CycK (Homo sapiens, UniProt P50750); experiment: Radiometric protein kinase assay (33PanQinase), CDK9_CycK; assay type: biochemical
T19 construct: purchased Reaction Biology

CDK6_CycD1 = biological target: T20, CDK6_CycD1 (Homo sapiens, UniProt Q00534); experiment: Radiometric protein kinase assay (33PanQinase), CDK6_CycD1; assay type: biochemical
T20 construct: purchased Reaction Biology

CDK2_CycD1 = biological target: T21, CDK2_CycD1 (Homo sapiens, UniProt P24941); experiment: Radiometric protein kinase assay (33PanQinase), CDK2_CycD1; assay type: biochemical
T21 construct: purchased Reaction Biology

CDK1_CycE1 = biological target: T22, CDK1_CycE1 (Homo sapiens, UniProt P06493); experiment: Radiometric protein kinase assay (33PanQinase), CDK1_CycE1; assay type: biochemical
T22 construct: purchased Reaction Biology

CDK5_p25NCK = biological target: T23, CDK5_p25NCK (Homo sapiens, UniProt Q00535); experiment: Radiometric protein kinase assay (33PanQinase), CDK5_p25NCK; assay type: biochemical
T23 construct: purchased Reaction Biology

CDK4_CycD3 = biological target: T24, CDK4_CycD3 (Homo sapiens, UniProt P11802); experiment: Radiometric protein kinase assay (33PanQinase), CDK4_CycD3; assay type: biochemical
T24 construct: purchased Reaction Biology

CDK1_CycA2 = biological target: T25, CDK1_CycA2 (Homo sapiens, UniProt P06493); experiment: Radiometric protein kinase assay (33PanQinase), CDK1_CycA2; assay type: biochemical
T25 construct: purchased Reaction Biology

[1] = highest assay concentration 1.00E-05 M

CDK17_p35NCK, sequence (Q00537 whole entry): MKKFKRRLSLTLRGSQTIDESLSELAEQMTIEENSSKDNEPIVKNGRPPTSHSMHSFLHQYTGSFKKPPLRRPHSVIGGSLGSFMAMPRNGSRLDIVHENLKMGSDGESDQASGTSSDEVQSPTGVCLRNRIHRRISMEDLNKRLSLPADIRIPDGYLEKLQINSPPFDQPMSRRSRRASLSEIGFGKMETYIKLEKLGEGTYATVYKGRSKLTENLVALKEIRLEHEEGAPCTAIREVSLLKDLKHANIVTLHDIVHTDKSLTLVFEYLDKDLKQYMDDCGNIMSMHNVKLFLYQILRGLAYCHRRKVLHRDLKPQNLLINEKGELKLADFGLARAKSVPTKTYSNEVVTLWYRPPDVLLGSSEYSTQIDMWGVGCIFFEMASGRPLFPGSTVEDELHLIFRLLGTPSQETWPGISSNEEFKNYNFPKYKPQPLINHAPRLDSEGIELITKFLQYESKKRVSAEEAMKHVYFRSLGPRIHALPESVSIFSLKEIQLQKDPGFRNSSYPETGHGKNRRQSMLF
T12 sequence (Q00534 whole entry): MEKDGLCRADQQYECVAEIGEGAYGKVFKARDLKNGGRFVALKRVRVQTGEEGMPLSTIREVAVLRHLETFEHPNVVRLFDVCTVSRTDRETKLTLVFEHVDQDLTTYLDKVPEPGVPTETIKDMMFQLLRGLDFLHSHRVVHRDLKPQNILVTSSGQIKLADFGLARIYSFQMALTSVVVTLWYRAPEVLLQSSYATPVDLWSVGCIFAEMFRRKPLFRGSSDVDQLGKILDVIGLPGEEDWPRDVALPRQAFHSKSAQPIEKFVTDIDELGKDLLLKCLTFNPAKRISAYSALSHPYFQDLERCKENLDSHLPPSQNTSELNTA
T12 sequence (P30279 whole entry partner): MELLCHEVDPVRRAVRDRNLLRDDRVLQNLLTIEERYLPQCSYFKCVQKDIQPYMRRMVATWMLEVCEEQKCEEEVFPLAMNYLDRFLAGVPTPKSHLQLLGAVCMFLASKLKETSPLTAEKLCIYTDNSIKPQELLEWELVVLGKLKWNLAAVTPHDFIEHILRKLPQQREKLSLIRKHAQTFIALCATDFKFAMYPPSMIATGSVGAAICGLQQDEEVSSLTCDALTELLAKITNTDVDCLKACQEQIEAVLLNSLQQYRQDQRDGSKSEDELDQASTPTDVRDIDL
T9 sequence (Q9NYV4 whole entry): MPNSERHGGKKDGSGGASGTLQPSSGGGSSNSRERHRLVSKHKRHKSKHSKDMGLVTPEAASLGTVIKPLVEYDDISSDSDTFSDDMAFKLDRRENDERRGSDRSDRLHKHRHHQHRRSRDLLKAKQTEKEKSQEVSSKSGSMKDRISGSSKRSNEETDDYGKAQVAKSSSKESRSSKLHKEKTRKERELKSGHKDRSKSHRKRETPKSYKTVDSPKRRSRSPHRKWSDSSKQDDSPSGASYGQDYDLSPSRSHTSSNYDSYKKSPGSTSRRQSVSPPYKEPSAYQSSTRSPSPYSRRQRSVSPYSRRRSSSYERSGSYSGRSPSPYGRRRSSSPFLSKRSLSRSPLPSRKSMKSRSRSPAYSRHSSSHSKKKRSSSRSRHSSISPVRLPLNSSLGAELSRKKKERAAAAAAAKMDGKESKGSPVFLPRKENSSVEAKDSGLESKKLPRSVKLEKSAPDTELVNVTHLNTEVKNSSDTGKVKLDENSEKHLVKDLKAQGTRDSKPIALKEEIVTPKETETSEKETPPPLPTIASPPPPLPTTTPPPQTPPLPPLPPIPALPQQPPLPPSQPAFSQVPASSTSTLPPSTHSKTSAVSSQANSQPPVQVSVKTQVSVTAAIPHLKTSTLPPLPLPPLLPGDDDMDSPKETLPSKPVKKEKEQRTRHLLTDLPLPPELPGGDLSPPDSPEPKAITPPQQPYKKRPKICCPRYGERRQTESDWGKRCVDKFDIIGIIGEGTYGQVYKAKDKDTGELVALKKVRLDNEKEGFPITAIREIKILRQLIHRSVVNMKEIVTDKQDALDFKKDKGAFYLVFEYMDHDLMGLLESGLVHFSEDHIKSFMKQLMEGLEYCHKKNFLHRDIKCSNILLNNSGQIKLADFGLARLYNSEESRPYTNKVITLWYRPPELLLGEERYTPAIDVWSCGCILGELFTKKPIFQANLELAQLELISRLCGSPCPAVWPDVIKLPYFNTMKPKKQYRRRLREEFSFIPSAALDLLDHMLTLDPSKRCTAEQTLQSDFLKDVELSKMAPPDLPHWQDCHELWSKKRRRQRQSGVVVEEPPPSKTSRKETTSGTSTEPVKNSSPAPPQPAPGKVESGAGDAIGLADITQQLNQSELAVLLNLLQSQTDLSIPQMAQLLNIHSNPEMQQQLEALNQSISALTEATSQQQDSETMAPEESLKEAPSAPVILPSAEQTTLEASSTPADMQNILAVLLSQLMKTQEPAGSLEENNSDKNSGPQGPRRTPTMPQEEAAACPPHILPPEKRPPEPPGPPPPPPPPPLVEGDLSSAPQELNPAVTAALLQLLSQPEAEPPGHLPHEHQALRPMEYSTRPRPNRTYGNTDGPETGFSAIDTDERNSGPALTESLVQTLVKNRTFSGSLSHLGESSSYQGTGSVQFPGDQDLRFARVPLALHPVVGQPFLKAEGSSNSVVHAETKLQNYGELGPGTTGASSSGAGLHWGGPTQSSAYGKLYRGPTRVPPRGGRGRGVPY
T9 sequence (O75909 whole entry partner): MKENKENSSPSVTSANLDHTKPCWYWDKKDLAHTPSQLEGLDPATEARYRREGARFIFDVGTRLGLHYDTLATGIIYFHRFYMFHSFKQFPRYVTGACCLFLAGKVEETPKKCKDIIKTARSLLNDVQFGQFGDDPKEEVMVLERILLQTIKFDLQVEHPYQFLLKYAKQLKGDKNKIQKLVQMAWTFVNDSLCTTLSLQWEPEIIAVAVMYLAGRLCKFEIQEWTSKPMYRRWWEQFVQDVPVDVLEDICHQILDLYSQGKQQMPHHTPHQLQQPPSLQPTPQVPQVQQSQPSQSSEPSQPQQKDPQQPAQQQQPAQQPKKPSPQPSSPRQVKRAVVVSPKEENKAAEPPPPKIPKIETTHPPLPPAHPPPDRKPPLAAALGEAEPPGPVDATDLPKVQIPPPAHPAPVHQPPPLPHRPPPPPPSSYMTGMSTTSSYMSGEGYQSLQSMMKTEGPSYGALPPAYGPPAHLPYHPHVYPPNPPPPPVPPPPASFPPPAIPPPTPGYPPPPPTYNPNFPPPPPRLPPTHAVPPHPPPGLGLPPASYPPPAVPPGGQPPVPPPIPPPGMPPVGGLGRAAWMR
T6 sequence (P50750 whole entry): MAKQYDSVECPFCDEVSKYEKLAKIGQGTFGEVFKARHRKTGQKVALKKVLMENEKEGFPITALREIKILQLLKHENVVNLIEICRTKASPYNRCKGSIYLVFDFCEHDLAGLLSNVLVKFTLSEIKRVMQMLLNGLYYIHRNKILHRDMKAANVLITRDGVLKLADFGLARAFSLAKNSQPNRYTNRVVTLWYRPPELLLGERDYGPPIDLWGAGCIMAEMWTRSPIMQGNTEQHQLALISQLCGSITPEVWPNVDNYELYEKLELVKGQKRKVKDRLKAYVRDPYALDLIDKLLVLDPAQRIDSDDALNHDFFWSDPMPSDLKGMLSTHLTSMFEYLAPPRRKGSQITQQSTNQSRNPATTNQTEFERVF
T6 sequence (O60563 whole entry partner): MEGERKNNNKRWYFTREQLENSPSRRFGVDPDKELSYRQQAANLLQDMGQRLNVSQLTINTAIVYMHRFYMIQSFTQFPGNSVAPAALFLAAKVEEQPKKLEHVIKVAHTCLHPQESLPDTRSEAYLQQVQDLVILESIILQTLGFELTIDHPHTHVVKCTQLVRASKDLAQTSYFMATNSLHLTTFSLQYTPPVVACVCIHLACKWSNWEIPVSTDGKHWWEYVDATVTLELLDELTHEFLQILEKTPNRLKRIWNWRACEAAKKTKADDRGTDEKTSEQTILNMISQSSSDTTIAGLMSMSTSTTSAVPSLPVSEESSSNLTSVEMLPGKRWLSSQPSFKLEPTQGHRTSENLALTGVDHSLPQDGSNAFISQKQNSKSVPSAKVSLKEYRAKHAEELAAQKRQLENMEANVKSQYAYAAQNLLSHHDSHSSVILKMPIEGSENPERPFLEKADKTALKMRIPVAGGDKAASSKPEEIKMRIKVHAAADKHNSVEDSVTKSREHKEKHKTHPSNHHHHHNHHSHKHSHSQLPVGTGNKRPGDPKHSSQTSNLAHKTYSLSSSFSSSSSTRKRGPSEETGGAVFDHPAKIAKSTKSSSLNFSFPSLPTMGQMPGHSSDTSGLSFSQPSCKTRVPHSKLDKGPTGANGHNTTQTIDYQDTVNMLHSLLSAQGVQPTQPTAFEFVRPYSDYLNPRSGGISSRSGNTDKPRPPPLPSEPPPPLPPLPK
T19 sequence (P50750 whole entry): as the sequence (P50750 whole entry) above
T19 sequence (O75909 whole entry partner): as the sequence (O75909 whole entry partner) above
T4 sequence (Q00526 whole entry): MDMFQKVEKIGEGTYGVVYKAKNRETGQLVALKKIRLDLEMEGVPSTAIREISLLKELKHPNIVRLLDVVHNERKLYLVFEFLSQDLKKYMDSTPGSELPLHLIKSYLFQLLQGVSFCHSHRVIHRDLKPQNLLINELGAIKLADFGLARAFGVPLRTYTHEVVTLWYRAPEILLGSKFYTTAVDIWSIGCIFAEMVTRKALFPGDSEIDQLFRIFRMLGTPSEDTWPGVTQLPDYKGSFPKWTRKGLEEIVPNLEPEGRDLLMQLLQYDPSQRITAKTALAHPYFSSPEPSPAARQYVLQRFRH
T4 sequence (P24863 whole entry partner): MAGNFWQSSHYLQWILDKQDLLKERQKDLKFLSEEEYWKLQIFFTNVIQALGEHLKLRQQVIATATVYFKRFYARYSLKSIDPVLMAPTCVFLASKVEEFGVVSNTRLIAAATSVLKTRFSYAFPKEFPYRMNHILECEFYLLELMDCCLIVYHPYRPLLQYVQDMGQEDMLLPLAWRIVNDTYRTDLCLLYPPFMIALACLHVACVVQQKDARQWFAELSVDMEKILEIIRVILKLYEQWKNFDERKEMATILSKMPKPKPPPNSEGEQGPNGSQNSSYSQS

In the case of `Cc1n[nH]c2ncc(C(=O)N3CCC[C@H]3c3ccc(Cl)cc3)cc12` [MSC2530818], the pIC50 (CDK7_CycH_MAT1; [1]) was < 5.00, the “Hill Slope” value (CDK7_CycH_MAT1; slope of the IC50 fit) was -0.6 and the pIC50 (CDK2_CycE1) was 5.53. The “Hill Slope” value (CDK2_CycE1; slope of the IC50 fit) was -1.29, the pIC50 (CDK2_CycA2) was 5.19 and the pIC50 (CDK3_CycC) was 5.19. For the same compound, the “Hill Slope” value (CDK3_CycC; slope of the IC50 fit) was -0.76, the pIC50 (CDK4_CycD2; [1]) was < 5.00 and the “Hill Slope” value (CDK4_CycD2; slope of the IC50 fit) was -0.44. The pIC50 (CDK9_CycT1; [1]) was < 5.00, the “Hill Slope” value (CDK9_CycT1; slope of the IC50 fit) was -1.26 and the pIC50 (CDK13_CycK) was < 5.00. For the same compound, the “Hill Slope” value (CDK13_CycK; slope of the IC50 fit) was -0.19, the pIC50 (CDK8_CycC) was 6.94 and the “Hill Slope” value (CDK8_CycC; slope of the IC50 fit) was -0.45. The pIC50 (CDK11B 357-795_CycK; [1]) was < 5.00, the “Hill Slope” value (CDK11B 357-795_CycK; slope of the IC50 fit) was -0.64 and the pIC50 (CDK20_CycH; [1]) was < 5.00. The “Hill Slope” value (CDK20_CycH; slope of the IC50 fit) was -0.81, the pIC50 (CDK8) was 8.36 and the pIC50 (CDK12_CycK; [1]) was 5.01. The “Hill Slope” value (CDK12_CycK; slope of the IC50 fit) was -0.59, the “Hill Slope” value (CDK6_CycD3) was -0.25 and the pIC50 (CDK4_CycD1; [1]) was < 5.00. For the same compound, the “Hill Slope” value (CDK4_CycD1; slope of the IC50 fit) was -0.48, the pIC50 (CDK6_CycD2; [1]) was < 5.00 and the “Hill Slope” value (CDK6_CycD2; slope of the IC50 fit) was -1.11. The pIC50 (CDK5_p35NCK; [1]) was 5.12, the “Hill Slope” value (CDK5_p35NCK; slope of the IC50 fit) was -1.04 and the pIC50 (CDK18_CycY; [1]) was 5.43. The “Hill Slope” value (CDK18_CycY; slope of the IC50 fit) was -1.14, the pIC50 (CDK19_CycC) was 6.45 and the “Hill Slope” value (CDK19_CycC; slope of the IC50 fit) was -0.43. The pIC50 (CDK15_CycA2; [1]) was < 5.00, the “Hill Slope” value (CDK15_CycA2; slope of the IC50 fit) was -0.85 and the pIC50 (CDK3_CycE1) was < 5.00. For the same compound, the “Hill Slope” value (CDK3_CycE1; slope of the IC50 fit) was -0.54, the pIC50 (CDK17_p35NCK; [1]) was < 5.00 and the “Hill Slope” value (CDK17_p35NCK; slope of the IC50 fit) was -0.57. For the same compound, the pIC50 (CDK10_CycQ; [1]) was < 5.00, the “Hill Slope” value (CDK10_CycQ; slope of the IC50 fit) was -1.12 and the pIC50 (CDK20_CycT1; [1]) was < 5.00. The “Hill Slope” value (CDK20_CycT1; slope of the IC50 fit) was -0.44, the pIC50 (CDK16_CycY; [1]) was < 5.00 and the “Hill Slope” value (CDK16_CycY; slope of the IC50 fit) was -0.58. The pIC50 (CDK1_CycB1; [1]) was < 5.00, the “Hill Slope” value (CDK1_CycB1; slope of the IC50 fit) was -0.72 and the pIC50 (CDK14_CycY; [1]) was < 5.00. For the same compound, the “Hill Slope” value (CDK14_CycY; slope of the IC50 fit) was -1, the “reduction of activity of TCF/LEF, SP1 and PAX6 reporter constructs” value (COLO205 cells) was > 1.5 fold and the pIC50 (CDK9_CycK; [1]) was < 5.00. The “Hill Slope” value (CDK9_CycK; slope of the IC50 fit) was -0.78, the pIC50 (CDK6_CycD1; [1]) was < 5.00 and the “Hill Slope” value (CDK6_CycD1; slope of the IC50 fit) was -0.22. For the same compound, the pIC50 (CDK2_CycD1) was 5.01, the “Hill Slope” value (CDK2_CycD1; slope of the IC50 fit) was -1.08 and the pIC50 (CDK1_CycE1) was 5.38. The “Hill Slope” value (CDK1_CycE1; slope of the IC50 fit) was -0.97, the pIC50 (CDK5_p25NCK; [1]) was < 5.00 and the “Hill Slope” value (CDK5_p25NCK; slope of the IC50 fit) was -0.57. The pIC50 (CDK4_CycD3; [1]) was < 5.00, the “Hill Slope” value (CDK4_CycD3; slope of the IC50 fit) was -0.71 and the pIC50 (CDK1_CycA2) was 5.19. The “Hill Slope” value (CDK1_CycA2; slope of the IC50 fit) was -0.93.
